Measured values: patent publication US12624023B2, “Sulfonylurea derivatives and uses thereof” (NodThera Limited, priority 2019, dated 2026)

Key:
[1] = system: IL-1β release upon NLRP3 activation in peripheral blood mononuclear cells (PBMC); test: PBMC IC50 determination assay (IL-1β release, LPS priming + ATP stimulation, HTRF); assay type: cell-based; conditions: PBMC from buffy coats; LPS 1 μg/ml 3 h, compound 30 min, ATP 5 mM 1 h; IL-1β by HTRF
Procedure, shortened: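 Buffy-coat PBMC were primed with LPS (1 μg/ml) for 3 h, given compound for 30 min, then stimulated with 5 mM ATP for 1 h. IL-1β released into the medium was quantified by HTRF, reading 655 and 620 nm.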

[2] = system: IL-1β release upon NLRP3 activation in human whole blood; test: Whole blood (WB) assay (IL-1β release, LPS priming + ATP stimulation, HTRF); assay type: cell-based; conditions: heparin, diluted 9:5 with media, LPS 1 μg/ml 3 h, compound 30 min, ATP 5 mM 1 h, IL-1β by HTRF
Procedure, shortened: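 Heparinised human whole blood, diluted 9:5 in medium, was primed with LPS (1 μg/ml final) for 3 h. Compound was then added for 30 min, followed by ATP (5 mM final) for 1 h. Secreted IL-1β was measured in the media by HTRF (655/620 nm).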

| IC50 [2] [nM] | Compound | IC50 [1] [nM] |
| --- | --- | --- |
| < 1000 | CCc1cc(NC(=O)NS(=O)(=O)N(c2cnn(C)c2)[C@H]2CCCN(C)C2)c(C(C)C)s1 [Compound 88, 3-[5-Ethyl-2-(propan-2-yl)thiophen-3-yl]-1-[(1-methyl-1H-pyrazol-4-yl)[(3S)-1-methylpiperidin-3-yl]sulfamoyl]urea] | < 100 |
| 1000 to 3000 | CCc1sc(C(C)C)cc1NC(=O)NS(=O)(=O)N(c1cnn(C)c1)[C@H]1CCCN(C)C1 [Compound 89, 3-[2-Ethyl-5-(propan-2-yl)thiophen-3-yl]-1-[(1-methyl-1H-pyrazol-4-yl)[(3S)-1-methylpiperidin-3-yl]sulfamoyl]urea] | < 100 |
| < 1000 | CC(C)c1cc(NC(=O)NS(=O)(=O)N(c2cnn(C)c2)[C@H]2C[C@H](F)CN(C)C2)c(C(C)C)s1 [Compound 92, 3-[2,5-Bis(propan-2-yl)thiophen-3-yl]-1-{[(3S,5S)-5-fluoro-1-methylpiperidin-3-yl](1-methyl-1H-pyrazol-4-yl)sulfamoyl}urea] | < 100 |
| < 1000 | Cc1sc2c(c1NC(=O)NS(=O)(=O)N(c1cnn(C)c1)[C@@H]1CCCN(C)C1)CCC2 [Compound 95, 1-[(1-Methyl-1H-pyrazol-4-yl)[(3R)-1-methylpiperidin-3-yl]sulfamoyl]-3-{2-methyl-4H,5H,6H-cyclopenta[b]thiophen-3-yl}urea] | 100 to 500 |
| 1000 to 3000 | CN1CCCC(N(c2cnn(C)c2)S(=O)(=O)NC(=O)Nc2c(C(F)(F)F)sc3c2CCC3)C1 (stereo not drawn) [Compound 98, 1-[(1-Methyl-1H-pyrazol-4-yl)(1-methylpiperidin-3-yl)sulfamoyl]-3-[2-(trifluoromethyl)-4H,5H,6H-cyclopenta[b]thiophen-3-yl]urea] | 100 to 500 |
| < 1000 | Cc1cc(NC(=O)NS(=O)(=O)N(c2cnn(C)c2)C2CCN(C)CC2)c(C(C)C)s1 [Compound 100, 1-[(1-Methyl-1H-pyrazol-4-yl)(1-methylpiperidin-4-yl)sulfamoyl]-3-[5-methyl-2-(propan-2-yl)thiophen-3-yl]urea] | 100 to 500 |
| 1000 to 3000 | COc1sc2c(c1NC(=O)NS(=O)(=O)N(c1cnn(C)c1)C1CCCN(C)C1)CCC2 (stereo not drawn) [Compound 102, 3-{2-Methoxy-4H,5H,6H-cyclopenta[b]thiophen-3-yl}-1-[(1-methyl-1H-pyrazol-4-yl)(1-methylpiperidin-3-yl)sulfamoyl]urea] | 100 to 500 |
| < 1000 | Cc1cc(NC(=O)NS(=O)(=O)N(c2cnn(C3CC3)c2)[C@H]2CCCN(C)C2)c(C(C)C)s1 [Compound 103, 1-[(1-Cyclopropyl-1H-pyrazol-4-yl)[(3S)-1-methylpiperidin-3-yl]sulfamoyl]-3-[5-methyl-2-(propan-2-yl)thiophen-3-yl]urea] | < 100 |
| 1000 to 3000 | Cc1cc(NC(=O)NS(=O)(=O)N(c2cnn(C)c2)[C@H]2CCCN(C)C2)c(C2CC2)s1 [Compound 107, 3-(2-Cyclopropyl-5-methylthiophen-3-yl)-1-[(1-methyl-1H-pyrazol-4-yl)[(3S)-1-methylpiperidin-3-yl]sulfamoyl]urea] | 100 to 500 |

The remaining lines, values behind:

| Compound | IC50 [2] [nM] | IC50 [1] [nM] |
| --- | --- | --- |
| CCc1cc(NC(=O)NS(=O)(=O)N(c2cnn(C(C)C)c2)[C@H]2CCCN(C)C2)c(CC)o1 [Compound 87, 3-(2,5-Diethylfuran-3-yl)-1-{[(3S)-1-methylpiperidin-3-yl][1-(propan-2-yl)-1H-pyrazol-4-yl]sulfamoyl}urea] | 1000 to 3000 | 100 to 500 |
| Cc1sc(C(C)C)cc1NC(=O)NS(=O)(=O)N(c1cnn(C)c1)[C@H]1CCCN(C)C1 [Compound 90, 1-[(1-Methyl-1H-pyrazol-4-yl)[(3S)-1-methylpiperidin-3-yl]sulfamoyl]-3-[2-methyl-5-(propan-2-yl)thiophen-3-yl]urea] | 1000 to 3000 | 100 to 500 |
| CC(C)c1cc(NC(=O)NS(=O)(=O)N(c2cnn(C3CC3)c2)[C@H]2CCCN(C)C2)c(C(C)C)s1 [Compound 91, 3-[2,5-Bis(propan-2-yl)thiophen-3-yl]-1-[(1-cyclopropyl-1H-pyrazol-4-yl)[(3S)-1-methylpiperidin-3-yl]sulfamoyl]urea] | < 1000 | < 100 |
| CC(C)c1cc(NC(=O)NS(=O)(=O)N(c2cnn(C)c2)C2CN(C)CC(F)(F)C2)c(C(C)C)s1 (stereo not drawn) [Compound 93, 3-[2,5-Bis(propan-2-yl)thiophen-3-yl]-1-[(5,5-difluoro-1-methylpiperidin-3-yl)(1-methyl-1H-pyrazol-4-yl)sulfamoyl]urea] | 3000 to 10000 | 100 to 500 |
| CCc1oc2c(c1NC(=O)NS(=O)(=O)N(c1cnn(C)c1)C1CCCN(C)C1)CCCC2 (stereo not drawn) [Compound 94, 3-(2-Ethyl-4,5,6,7-tetrahydro-1-benzofuran-3-yl)-1-[(1-methyl-1H-pyrazol-4-yl)(1-methylpiperidin-3-yl)sulfamoyl]urea] | < 1000 | 100 to 500 |
| CC(C)c1cc(NC(=O)NS(=O)(=O)N(c2cnn(C)c2)[C@H]2C[C@@H](F)CN(C)C2)c(C(C)C)s1 [Compound 96, 3-[2,5-Bis(propan-2-yl)thiophen-3-yl]-1-{[(3S,5R)-5-fluoro-1-methylpiperidin-3-yl](1-methyl-1H-pyrazol-4-yl)sulfamoyl}urea] | 3000 to 10000 | 100 to 500 |
| Cc1sc2c(c1NC(=O)NS(=O)(=O)N(c1cnn(C)c1)C1CCCN(C)C1)CCCC2 (stereo not drawn) [Compound 97, 1-[(1-Methyl-1H-pyrazol-4-yl)(1-methylpiperidin-3-yl)sulfamoyl]-3-(2-methyl-4,5,6,7-tetrahydro-1-benzothiophen-3-yl)urea] | < 1000 | 100 to 500 |
| CC(C)c1cc(NC(=O)NS(=O)(=O)N(c2cnn(C3CC3)c2F)C2CCCN(C)C2)c(C(C)C)s1 (stereo not drawn) [Compound 99, 3-[2,5-Bis(propan-2-yl)thiophen-3-yl]-1-[(1-cyclopropyl-5-fluoro-1H-pyrazol-4-yl)(1-methylpiperidin-3-yl)sulfamoyl]urea] | 1000 to 3000 | < 100 |
| Cc1cc(NC(=O)NS(=O)(=O)N(c2cnn(C)c2F)C2CCN(C)CC2)c(C(C)C)s1 [Compound 101, 1-[(5-Fluoro-1-methyl-1H-pyrazol-4-yl)(1-methylpiperidin-4-yl)sulfamoyl]-3-[5-methyl-2-(propan-2-yl)thiophen-3-yl]urea] | < 1000 | < 100 |
| Cc1cc(NC(=O)NS(=O)(=O)N(c2cnn(C3CC3)c2)[C@@H]2CCCN(C)C2)c(C(C)C)s1 [Compound 104, 1-[(1-Cyclopropyl-1H-pyrazol-4-yl)[(3R)-1-methylpiperidin-3-yl]sulfamoyl]-3-[5-methyl-2-(propan-2-yl)thiophen-3-yl]urea] | < 1000 | < 100 |
| Cc1cc(NC(=O)NS(=O)(=O)N(c2cnn(C3CC3)c2)[C@@H]2CCCN(C)C2)c(C2CC2)s1 [Compound 106, 1-[(1-Cyclopropyl-1H-pyrazol-4-yl)[(3R)-1-methylpiperidin-3-yl]sulfamoyl]-3-(2-cyclopropyl-5-methylthiophen-3-yl)urea] | 1000 to 3000 | 100 to 500 |
| Cc1cc(NC(=O)NS(=O)(=O)N(c2cnn(C)c2)[C@@H]2CCCN(C)C2)c(C2CC2)s1 [Compound 108, 3-(2-Cyclopropyl-5-methylthiophen-3-yl)-1-[(1-methyl-1H-pyrazol-4-yl)[(3R)-1-methylpiperidin-3-yl]sulfamoyl]urea] | 1000 to 3000 | < 100 |
